The values below come from article PMC11882969 (Nature Communications, 2025).

Several values for one entry are separate records, joined by “and”; a condition that tells them apart may be missing. Identical values can stand only once. Like-named read-outs stand apart in the source and are kept apart here.

For data set [1], the target named is T1, human PTH receptor (PTHR) (Homo sapiens, UniProt Q03431).
T1 construct: expressed in transfected cells; host or cells: HEK293 (HEK293SL) cells, transient co-transfection with the Gαs biosensor
T1 sequence (Q03431 27-593): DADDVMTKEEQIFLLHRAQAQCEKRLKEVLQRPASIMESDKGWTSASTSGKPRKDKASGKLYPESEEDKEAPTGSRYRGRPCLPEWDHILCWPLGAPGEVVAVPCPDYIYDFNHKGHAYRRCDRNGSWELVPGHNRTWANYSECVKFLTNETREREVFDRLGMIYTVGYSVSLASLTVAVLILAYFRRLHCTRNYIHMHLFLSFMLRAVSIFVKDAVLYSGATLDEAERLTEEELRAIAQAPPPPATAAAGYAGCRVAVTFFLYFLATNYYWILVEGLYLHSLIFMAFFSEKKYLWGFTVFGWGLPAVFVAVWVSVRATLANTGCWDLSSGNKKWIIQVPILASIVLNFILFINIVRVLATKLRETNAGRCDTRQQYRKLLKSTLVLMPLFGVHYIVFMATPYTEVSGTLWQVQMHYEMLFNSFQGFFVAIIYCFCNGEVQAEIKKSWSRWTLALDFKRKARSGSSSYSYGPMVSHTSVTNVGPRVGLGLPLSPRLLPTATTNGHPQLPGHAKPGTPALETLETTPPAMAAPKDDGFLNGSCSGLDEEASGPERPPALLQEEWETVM
Description: Gs bioSens-All control assay. The data set is classed as cell-based. The following applies: raw signal, log[PTH]. An excerpt: Experimental data were produced in singleton and curves were fitted using the four-parameter logistic non-linear regression model (GraphPad Prism 9). Data are expressed as uBRET.

A further data set can be described thus: in vitro. The following applies: mouse, plasma.
The test system of data set [2] is mice. Description: Tail flick, 50 °C water bath. The data set is classed as in vivo, mouse. Particulars: for analgesic response normalised to baseline, WT vs CB1R KO (Figure5d), individual animals: 10 mg/kg.
Data set [3] has as its system mice. The experiment in a line: Conditioned place preference. The data set is classed as in vivo, mouse. Particulars: for Individual animal scores (FigS11e): test not printed on the sheet; for conditioned place preference: drug-paired vs vehicle-paired chamber. The method, then: Briefly, mice were first habituated to the test apparatus, twice, and their preference for each chamber recorded for 30 min (Pretest). Two conditioning days followed in which mice received the vehicle control or the compound, and 30 min later restricted for 30 min in the preferred or non-preferred chamber, respectively. On day 5 (Test day), mice were allowed to roam freely between the 3 chambers of the apparatus and their preference for each chamber recorded for 30 min. To calculate the CPP score, we subtracted the time spent in each chamber of the box on the Pretest day from that of the Test day (CPP score = Test - Pretest).

Data set [4] relates to mice. Description: Hargreaves radiant heat test. The data set is classed as in vivo, mouse.
In data set [5] the test system is mice. The experiment in a line: Catalepsy test, vertical wire mesh. The data set is classed as in vivo, mouse. The method, then: Thirty min after an i.p. injection of the compounds, mice were placed on a vertical wire mesh and the latency to move all four paws was recorded.
The subject of data set [6] is mice. The experiment in a line: Acetone test, cold allodynia after spared nerve injury. The data set is classed as in vivo, mouse. The method, then:
Mice were placed on a wire mesh and thirty min after an i.p. injection of the compounds we applied a drop (50 μL) of acetone on the ventral aspect of the hindpaw, 5 times every 30 sec. We recorded the number of nocifensive behaviors (paw lifts/licks/shakes/bites) over the 5 applications.

The subject of data set [7] is mice.
Description: For all behavioral tests, the experimenter was always blind to treatment. Animals were first habituated for 30-60 min in Plexiglas cylinders and then tested 30 min after i.p. or i.t. injection of the compounds. The thermal (Hargreaves, hotplate and tail flick) and ambulatory (rotarod) tests were conducted as described[96]. Briefly, hindpaw thermal sensitivity was measured with a radiant heat source (Hargreaves) or on a hotplate at 52 °C. For the tail flick assay, sensitivity was measured by immersing the tail into a 50 °C water bath. For the ambulatory (rotarod) test, before testing with any compound, mice underwent three trainings on three consecutive days until they reach 300 sec. Each training has three sessions of five min each. Therapeutic window was calculated as the ratio of the minimum dose of side effect phenotype to the minimum dose of analgesic phenotype.
Data set [8] has as its system mice. Description: Rotarod test. The data set is classed as in vivo, mouse.
Data set [9] is described as follows: Pharmacokinetics: plasma, brain, CSF. Particulars: 0.2 mg/kg i.p., CD-1 mice.
The test system of data set [10] is mice. The experiment in a line: Hot plate, 52 °C. The data set is classed as in vivo, mouse.
Where [11] appears, read: 0.2 mg/kg, individual animals, FigS11b.

Description for in vitro: The reactions were stopped by adding 240 μL 90% acetonitrile containing internal standard with subsequent plasma proteins sedimentation by centrifuging at 5796 g for 5 min. Supernatants were analyzed by the HPLC system coupled with a tandem mass spectrometer. The percentage of the test compounds remaining after incubation in plasma and their half-lives (T1/2) were calculated.

On to PTH, for which the PTH control response in [1] (M -6.22186) came out at 5622; in [1] (M -6.53946), 5653; in data set [1] (M -6.85696), 5394; in data set [1] (M -7.17551), 5221; in [1] (M -7.49499), 5149; in data set [1] (M -7.80694) it was 5011. The PTH control response is recorded as 4856 in data set [1] (M -8.11922); 4893 in data set [1] (M -8.44613); 5167 in data set [1] (M -8.76448); 5440 in [1] (M -9.07573); 6053 in data set [1] (M -9.22186); 5806 in data set [1] (M -9.39794). Also, the PTH control response in [1] (M -9.68787) was found to be 6475; in [1] (M -10.1552), 7581; in [1] (M -10.6199), 8362; in [1] (M -11.0969) it was 9720; in data set [1] (M -11.5529), 9963; in [1] (M -12.0177) it was 10394. Besides, the PTH control response in data set [1] (M -12.4948) was 10587; in data set [1] (M -12.9208) it was 10667; in [1] (M -13.3979) it was 10336; in [1] (M -13.8861) it was 10932; in data set [1] (M -14), 11358 and 10843.

In the data set “in vitro”, `CC(C)[N+](C)(CCOC(=O)C1c2ccccc2Oc2ccccc21)C(C)C` [Propantheline, reference compound] showed a half-life at 1 µM of 28 min; a fraction remaining at 20 min, 1 µM of 75%; a share remaining at 40 min, 1 µM of 50%; an amount remaining at 1 h, 1 µM of 31%. In “in vitro”, the amount remaining at 2 h, 1 µM was 6%.

Consider `CN1CC[C@]23c4c5ccc(O)c4O[C@H]2[C@@H](O)C=C[C@H]3[C@H]1C5` [morphine, reference compound], for which the “analgesic response normalised to baseline, WT vs CB1R KO (Figure5d), individual animals” value with mice [2] (CB1R KO mice) was 186.205 and 193.839 and 225.055 and 193.021 and 200.382; in the data set with mice [2] (WT mice), 138.803 and 169.174 and 209.668 and 177.834 and 174.541. Moreover, the “Response relative to baseline (baseline about 100)” value in the data set with mice [2] (Morphine 3 mg/kg, individual animals, sheet Figure7b, test not given) is 153.4 and 95 and 153.1 and 101.6 and 124.1 and 132.6 and 140.4 and 96.4 and 125 and 194 and 137 and 131 and 126 and 149.7 and 136.2. Moreover, the “Individual animal scores (FigS11e)” value with mice [3] (20 mg/kg) was 125 and 92 and 189 and -5 and 874 and 419 and 158 and 182. For the same compound, the conditioned place preference entry in the data set on mice [3] is “significantly increased their preference”.

On to `CCCCCCC(C)(C)c1ccc([C@@H]2C[C@H](O)CC[C@H]2CCCO)c(O)c1` [CP-55940], for which the “Dose response, individual animals (FigS11a)” value in the data set on mice [4] (Dose 0.2 mg/kg, test not printed on the sheet) was 256.9 and 109.7 and 71.66 and 121.4 and 287.7.

As for `CCCCCCC(C)(C)c1ccc([C@@H]2C[C@H](O)CC[C@H]2CCCO)c(O)c1` [CP-55,940, reference compound], the “catalepsy (Figure6c), individual animals” value in the data set on mice [5] (0.2 mg/kg dose) was 17 and 15 and 13 and 3 and 5; in the data set with mice [5] (0.5 mg/kg dose) it was 6.8 and 5 (2×) and 30 and 5.6 and 4 and 2 (2×) and 7 and 8.5; with mice [5] (1 mg/kg dose), 15.3 and 23.3 and 17.7 and 28 and 15.7. In the data set with mice [5] (i.p.), the “dose at which catalepsy starts” value was determined as 0.2 mg/kg. The “acetone test response after spared nerve injury (Figure5b), individual animals” value in the data set with mice [6] (Dose 0.2 mg/kg) is 36 and 40 and 48 and 76. Besides, the “effect on acetone-induced nocifensive behaviors” value in the data set on mice [6] (spared nerve injury, i.p.) is recorded as “strongly reduced spared nerve injury-induced cold allodynia”. In addition, the “lowest dose with significantly increased latency, Hargreaves” value in the data set with mice [4] (i.p., 30 min after injection) came out at 0.2 mg/kg. Moreover, the “therapeutic window, Acetone” value with mice [7] (Figure 6e, vs rotarod) turned out to be 1; with mice [7] (Figure 6d, vs open field) it was 1. Also, the “therapeutic window, Hot Plate” value with mice [7] (Figure 6e, vs rotarod) came out at 0.4; in the data set with mice [7] (Figure 6d, vs open field), 0.4. The “therapeutic window, Tail Flick” value in the data set with mice [7] (Figure 6e, vs rotarod) is recorded as 0.4; with mice [7] (Figure 6d, vs open field) it was 0.4. Besides, in the data set with mice [7] (Figure 6f), the “therapeutic window, analgesia vs catalepsy” value was “no window between analgesia and catalepsy”. In addition, the “Individual animal scores (FigS11e)” value with mice [3] (0.5 mg/kg) was -18 and -21 and -54 and 119 and -213 and 8 and -326 and -238. For the same compound, the conditioned place preference result with mice [3] is on record as “may actually induce some aversion”. Besides, the “rotarod performance (Figure6b), individual animals” value in the data set on mice [8] (Dose 0.1 mg/kg) was 284 and 282 and 285 and 300; with mice [8] (Dose 0.2 mg/kg) it was 261 and 257 and 210 and 300 and 91 and 161 and 258 and 208 and 236 and 275; with mice [8] (Dose 1.0 mg/kg), 200 and 204 and 173 and 236 and 203. In the data set on mice [8] (rotarod and open field), the “motor impairment at analgesic doses” value is “caused motor impairment in both the rotarod and open field tests”. The “brain Cmax” value in [9] came out at 19.2 ng/g. The “brain T1/2” value in data set [9] was 127 min. Besides, the Jump in the data set with mice [10] (setting [11]) is 18 and 0 (2×) and 4 (2×). Besides, the Paw lick in the data set with mice [10] (setting [11]) was 0 (4×) and 10. Also, in the data set on mice [10] (setting [11]), the Paw shake was 0 (2×) and 6 and 12 and 8. In addition, the Paw withdrawal in the data set with mice [10] (setting [11]) is 18 and 34 and 32 and 36 and 64. The “hot plate response normalised to baseline (Figure4b), individual animals” value with mice [10] (Dose 0.2 mg/kg) was 98.1 and 121.1 and 123.4 and 122.6 and 97.5; in the data set on mice [10] (Dose 0.5 mg/kg) it was 256.6 and 226.6 and 210.5 and 222.4 and 213.7. In addition, the “lowest dose with significantly increased hot plate latency” value in the data set with mice [10] (i.p., 30 min after injection) was found to be 0.5 mg/kg.
